Values of other authors, collected in US20100048608A1, “Histone Deacetylase Inhibitors for the Treatment of Ocular Neovascular or Edematous Disorders and Diseases” (ALCON, INC., priority 2002, published 2010).

Experiments:
[1] = system: cancer cell; conditions: Munster et al. 2001
[2] = phase I clinical trials; Kelly et al. 2001
[3] = system: tumors; conditions: Butler et al. 2000
[4] = system: cancer cell; conditions: Butler et al. 2002
[5] = system: corneal neovascularization; conditions: in combination with a beta cyclodextrin; Li et al. 1991

## O=C(CCCCCCC(=O)Nc1ccccc1)NO [SAHA, suberoylanilide hydroxamic acid]
[1]
  induction of cancer cell differentiation: potent inducer of cancer cell differentiation
[2]
  dose-limiting toxicity: almost no dose-limiting toxicity
  suppression of white blood cell production: no suppression of white blood cell production
[3]
  effect on tumors in animal models: shrink tumors in animal models
[4]
  cancer cell growth in vitro: arrest cancer cell growth in vitro

## C[C@]12CC[C@@H](O)C[C@H]1CC[C@@H]1[C@@H]2CC[C@@]2(C)[C@H]1CC[C@]2(O)C(=O)CO [tetrahydrocortisol-S]
[5]
  inhibition of corneal neovascularization: inhibit corneal neovascularization

## C[C@@H]1C[C@H]2[C@@H]3C[C@H](F)C4=CC(=O)CC[C@]4(C)C3=CC[C@]2(C)[C@@]1(O)C(=O)CO [U-72,745G]
[5]
  inhibition of corneal neovascularization: inhibit corneal neovascularization

## C[C@]12CCC(=O)C=C1CC[C@@H]1[C@@H]2[C@@H](O)C[C@@]2(C)[C@H]1CC[C@]2(O)C(=O)CO [hydrocortisone]
[5]
  inhibition of corneal neovascularization: inhibit corneal neovascularization
